This note sets out measurements from patent publication US11661426B2, “Imidazole-containing inhibitors of ALK2 kinase” (BioCryst Pharmaceuticals, Inc., priority 2017, dated 2023).

SMILES strings stand for the structures.

As a reminder, the IC50 is the concentration needed to halve the response being measured.

Sequence of ALK2 (Q04771 21-509): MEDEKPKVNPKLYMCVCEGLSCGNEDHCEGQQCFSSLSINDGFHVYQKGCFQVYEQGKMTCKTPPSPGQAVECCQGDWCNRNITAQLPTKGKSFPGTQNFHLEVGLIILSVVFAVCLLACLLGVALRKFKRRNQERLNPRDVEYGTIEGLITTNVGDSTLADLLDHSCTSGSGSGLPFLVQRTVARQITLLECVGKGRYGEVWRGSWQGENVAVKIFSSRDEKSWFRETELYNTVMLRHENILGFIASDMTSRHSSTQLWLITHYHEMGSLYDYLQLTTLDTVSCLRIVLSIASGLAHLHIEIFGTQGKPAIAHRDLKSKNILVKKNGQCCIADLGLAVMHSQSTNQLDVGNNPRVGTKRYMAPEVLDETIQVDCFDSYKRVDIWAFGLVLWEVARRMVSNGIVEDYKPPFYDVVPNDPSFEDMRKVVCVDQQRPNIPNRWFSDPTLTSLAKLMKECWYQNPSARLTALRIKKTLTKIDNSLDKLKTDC

The assay addresses ALK2 (Homo sapiens (Human), UniProt Q04771). Description: ALK2 inhibition, LanthaScreen Eu Kinase Binding Assay (ThermoFisher Scientific / Life Technologies). As to conditions: read-out: Measured Ki (IC50) Value for Compounds: IC50. The method, then: Biochemical assays to measure the inhibitory effects of the compounds were performed by ThermoFisher Scientific (Life Technologies). ALK2 inhibition was tested using LanthaScreen™ Eu Kinase Binding Assay screening protocol.
A general note: In TR-FRET formats the signal depends on donor and acceptor labels being close together.
Take `COc1cc(-n2cnc(Nc3nc(N4CCC[C@H]4C(N)=O)nc4[nH]cc(C#N)c34)c2)cc(OC)c1OC` [Compound 395d, (S)-1-(5-cyano-4-((1-(3,4,5-trimethoxyphenyl)-1H-imidazol-4-yl)amino)-7H-pyrrolo[2,3-d]pyrimidin-2-yl)pyrrolidine-2-carboxamide]: the 50% inhibitory concentration (IC50) was > 1000 nM.
For `COc1cc(-n2cnc(Nc3nc(N4[C@H](CO)C[C@H]5C[C@H]54)nc4c3CCC4)c2)cc(OC)c1OC` [Compound 396a, ((1R,3S,5R)-2-(4-((1-(3,4,5-trimethoxyphenyl)-1H-imidazol-4-yl)amino)-6,7-dihydro-5H-cyclopenta[d]pyrimidin-2-yl)-2-azabicyclo[3.1.0]hexan-3-yl)methanol] the value was < 100 nM; for `COc1cc(-n2cnc(Nc3nc(N4CCC[C@H]4CO)nc4[nH]cc(C#N)c34)c2)cc(OC)c1OC` [Compound 397a, (S)-2-(2-(hydroxymethyl)pyrrolidin-1-yl)-4-((1-(3,4,5-trimethoxyphenyl)-1H-imidazol-4-yl)amino)-7H-pyrrolo[2,3-d]pyrimidine-5-carbonitrile], 100 to 1000 nM.
On to `COc1cc(-n2cnc(Nc3nc4c(c(N5CCC[C@H]5CO)n3)CCCCC4)c2)cc(OC)c1OC` [Compound 398c, (S)-(1-(2-((1-(3,4,5-trimethoxyphenyl)-1H-imidazol-4-yl)amino)-6,7,8,9-tetrahydro-5H-cyclohepta[d]pyrimidin-4-yl)pyrrolidin-2-yl)methanol], for which the IC50 is < 100 nM.
The result for `COc1cc(-n2cnc(Nc3nc(N4CCC[C@H]4CO)nc4cc(CN5CCCC5)ccc34)c2)cc(OC)c1OC` [Compound 399f, (S)-(1-(7-(pyrrolidin-1-ylmethyl)-4-((1-(3,4,5-trimethoxyphenyl)-1H-imidazol-4-yl)amino)quinazolin-2-yl)pyrrolidin-2-yl)methanol] reads < 100 nM; that for `COc1cc(-n2cnc(Nc3nc(N4CCC[C@H]4CO)nc4c3c(C)nn4C3CCCCO3)c2)cc(OC)c1OC` (stereo partly drawn) [Compound 400c, ((2S)-1-(3-methyl-1-(tetrahydro-2H-pyran-2-yl)-4-((1-(3,4,5-trimethoxyphenyl)-1H-imidazol-4-yl)amino)-1H-pyrazolo[3,4-d]pyrimidin-6-yl)pyrrolidin-2-yl)methanol], 100 to 1000 nM.
For `COc1cc(-n2cnc(Nc3nc(N4CCC[C@H]4CO)nc4[nH]nc(C)c34)c2)cc(OC)c1OC` [Compound 400d, (S)-(1-(3-methyl-4-((1-(3,4,5-trimethoxyphenyl)-1H-imidazol-4-yl)amino)-1H-pyrazolo[3,4-d]pyrimidin-6-yl)pyrrolidin-2-yl)methanol] the value was 100 to 1000 nM.
For `COc1cc(-n2cnc(Nc3nc(N4CCC[C@H]4C(N)=O)nc4c3c(C)nn4C3CCCCO3)c2)cc(OC)c1OC` (stereo partly drawn) [Compound 401a, (2S)-1-(3-methyl-1-(tetrahydro-2H-pyran-2-yl)-4-((1-(3,4,5-trimethoxyphenyl)-1H-imidazol-4-yl)amino)-1H-pyrazolo[3,4-d]pyrimidin-6-yl)pyrrolidine-2-carboxamide] the value was > 1000 nM; for `COc1cc(-n2cnc(Nc3nc(N4CCC[C@H]4C(N)=O)nc4[nH]nc(C)c34)c2)cc(OC)c1OC` [Compound 401b, (S)-1-(3-methyl-4-((1-(3,4,5-trimethoxyphenyl)-1H-imidazol-4-yl)amino)-1H-pyrazolo[3,4-d]pyrimidin-6-yl)pyrrolidine-2-carboxamide], > 1000 nM.
Consider `COc1cc(-n2cnc(Nc3nc(N4CCC[C@H]4CO)c4c(C)nn(C5CCCCO5)c4n3)c2)cc(OC)c1OC` (stereo partly drawn) [Compound 402b, ((2S)-1-(3-methyl-1-(tetrahydro-2H-pyran-2-yl)-6-((1-(3,4,5-trimethoxyphenyl)-1H-imidazol-4-yl)amino)-1H-pyrazolo[3,4-d]pyrimidin-4-yl)pyrrolidin-2-yl)methanol], for which the 50% inhibitory concentration (IC50) is < 100 nM.
For `COc1cc(-n2cnc(Nc3nc(N4CCC[C@H]4CO)c4c(C)n[nH]c4n3)c2)cc(OC)c1OC` [Compound 402c, (S)-(1-(3-methyl-6-((1-(3,4,5-trimethoxyphenyl)-1H-imidazol-4-yl)amino)-1H-pyrazolo[3,4-d]pyrimidin-4-yl)pyrrolidin-2-yl)methanol] the value was < 100 nM; for `COc1cc(-n2cnc(Nc3nc(N4CCC[C@H]4C(N)=O)nc4sc(CN5CCCC5)cc34)c2)cc(OC)c1OC` [Compound 403h, (S)-1-(6-(pyrrolidin-1-ylmethyl)-4-((1-(3,4,5-trimethoxyphenyl)-1H-imidazol-4-yl)amino)thieno[2,3-d]pyrimidin-2-yl)pyrrolidine-2-carboxamide], < 100 nM; for `COc1cc(-n2cnc(Nc3nc(N4CCC[C@H]4C(N)=O)nc4sc(CN5CCC(O)CC5)cc34)c2)cc(OC)c1OC` [Compound 404b, (S)-1-(6-((4-hydroxypiperidin-1-yl)methyl)-4-((1-(3,4,5-trimethoxyphenyl)-1H-imidazol-4-yl)amino)thieno[2,3-d]pyrimidin-2-yl)pyrrolidine-2-carboxamide], < 100 nM.
As for `COc1cc(-n2cnc(Nc3nc(N4CCC[C@H]4C(N)=O)nc4sc(CN5CCN(C)CC5)cc34)c2)cc(OC)c1OC` [Compound 405b, (S)-1-(6-((4-methylpiperazin-1-yl)methyl)-4-((1-(3,4,5-trimethoxyphenyl)-1H-imidazol-4-yl)amino)thieno[2,3-d]pyrimidin-2-yl)pyrrolidine-2-carboxamide], the IC50 is < 100 nM.
The result for `COc1cc(-n2cnc(Nc3nc(N4CCC[C@H]4C(N)=O)nc4sc(CN5CCCCC5)cc34)c2)cc(OC)c1OC` [Compound 406b, (S)-1-(6-(piperidin-1-ylmethyl)-4-((1-(3,4,5-trimethoxyphenyl)-1H-imidazol-4-yl)amino)thieno[2,3-d]pyrimidin-2-yl)pyrrolidine-2-carboxamide] reads < 100 nM; that for `COc1cc(-n2cnc(Nc3nc(N4CCC[C@H]4C(N)=O)nc4sc(CN5CCOCC5)cc34)c2)cc(OC)c1OC` [Compound 407b, (S)-1-(6-(morpholinomethyl)-4-((1-(3,4,5-trimethoxyphenyl)-1H-imidazol-4-yl)amino)thieno[2,3-d]pyrimidin-2-yl)pyrrolidine-2-carboxamide], < 100 nM.
In the case of `COc1cc(-n2cnc(Nc3nc(N4CCC[C@H]4C(N)=O)nc4sc(CN5CCN(c6ccccn6)CC5)cc34)c2)cc(OC)c1OC` [Compound 408b, (S)-1-(6-((4-(pyridin-2-yl)piperazin-1-yl)methyl)-4-((1-(3,4,5-trimethoxyphenyl)-1H-imidazol-4-yl)amino)thieno[2,3-d]pyrimidin-2-yl)pyrrolidine-2-carboxamide], the IC50 was < 100 nM.
For `COc1cc(-n2cnc(Nc3nc(N4CCCCC4)c4ccc(CN5CCCC5)cc4n3)c2)cc(OC)c1OC` [Compound 409e, 4-(piperidin-1-yl)-7-(pyrrolidin-1-ylmethyl)-N-(1-(3,4,5-trimethoxyphenyl)-1H-imidazol-4-yl)quinazolin-2-amine] the value was < 100 nM.
For `COc1cc(-n2cnc(Nc3nc(N4CCC[C@H]4CO)nn4c(C(=O)N5CCCCC5)ccc34)c2)cc(OC)c1OC` [Compound 410e, (S)-(2-(2-(hydroxymethyl)pyrrolidin-1-yl)-4-((1-(3,4,5-trimethoxyphenyl)-1H-imidazol-4-yl)amino)pyrrolo[2,1-f][1,2,4]triazin-7-yl)(piperidin-1-yl)methanone] the value was < 100 nM; for `COC(=O)c1cc(Nc2cn(-c3cc(OC)c(OC)c(OC)c3)cn2)c2occc2c1` [Compound 411b, methyl 7-((1-(3,4,5-trimethoxyphenyl)-1H-imidazol-4-yl)amino)benzofuran-5-carboxylate], 100 to 1000 nM; for `COc1cc(-n2cnc(Nc3cc(C(=O)O)cc4ccoc34)c2)cc(OC)c1OC` [Compound 411c, 7-((1-(3,4,5-trimethoxyphenyl)-1H-imidazol-4-yl)amino)benzofuran-5-carboxylic acid], 100 to 1000 nM.
Take `COc1cc(-n2cnc(Nc3cc(C(=O)N4CCC[C@H]4C(N)=O)cc4ccoc34)c2)cc(OC)c1OC` [Compound 411d, (S)-1-(7-((1-(3,4,5-trimethoxyphenyl)-1H-imidazol-4-yl)amino)benzofuran-5-carbonyl)pyrrolidine-2-carboxamide]: the concentration for half-maximal inhibition (IC50) was in the range of 100 to 1000 nM.
For `COc1cc(-n2cnc(Nc3cc(C(=O)N4CCCC4)cc4ccoc34)c2)cc(OC)c1OC` [Compound 412a, pyrrolidin-1-yl(7-((1-(3,4,5-trimethoxyphenyl)-1H-imidazol-4-yl)amino)benzofuran-5-yl)methanone] the value was 100 to 1000 nM; for `COc1cc(-n2cnc(Nc3cc(C(=O)N4CCC[C@@H](N)C4)cc4ccoc34)c2)cc(OC)c1OC` [Compound 413b, (R)-(3-aminopiperidin-1-yl)(7-((1-(3,4,5-trimethoxyphenyl)-1H-imidazol-4-yl)amino)benzofuran-5-yl)methanone], 100 to 1000 nM; for `OC[C@@H]1CCCN1c1nc(Nc2cn(-c3ccc(OC(F)(F)F)cc3)cn2)c2cccn2n1` [Compound 414d, (S)-(1-(4-((1-(4-(trifluoromethoxy)phenyl)-1H-imidazol-4-yl)amino)pyrrolo[2,1-f][1,2,4]triazin-2-yl)pyrrolidin-2-yl)methanol], 100 to 1000 nM.
`COc1cc(-n2cnc(Nc3nc(N4CCC[C@H]4CO)c4cccn4n3)n2)cc(OC)c1OC` [Compound 415d, (S)-(1-(2-((1-(3,4,5-trimethoxyphenyl)-1H-1,2,4-triazol-3-yl)amino)pyrrolo[2,1-f][1,2,4]triazin-4-yl)pyrrolidin-2-yl)methanol]: the half-inhibitory concentration (IC50) is 100 to 1000 nM.
The result for `COC(=O)c1cc(OC)cc(-n2cnc(Nc3nc(N4CCC[C@H]4CO)nn4cccc34)c2)c1` [Compound 416e, (S)-methyl 3-(4-((2-(2-(hydroxymethyl)pyrrolidin-1-yl)pyrrolo[2,1-f][1,2,4]triazin-4-yl)amino)-1H-imidazol-1-yl)-5-methoxybenzoate] reads < 100 nM.
